Measurements from patent US20250050042A1, “DRY POWDER FORMULATIONS FILLED IN AN INHALER WITH IMPROVED RESISTANCE TO HUMIDITY” (CHIESI FARMACEUTICI S.P.A., priority 2021, published 2025).
Structures can show the parent of a compound that is named as a salt.

Assays:
[1] = In-use stability of aerosol performance (FPM drop, NGI) on storage at 30° C. and 75% relative humidity; format: physicochemical; settings: in use at 30° C./75%
[2] = Aerosol performance by Next Generation Impactor (Example 4); format: physicochemical; parameters: MDD: unit not given beside the values; settings: mean; for FPM: particles equal to or lower than 5.0 micron
[3] = second block of Table 1 without sub-heading (co-micronization formulation), T = 0 + 1 M
[4] = second block of Table 1 without sub-heading (co-micronization formulation), T = 0 + 2 M
[5] = second block of Table 1 without sub-heading (co-micronization formulation), T = 0 + 3 M
[6] = simple mixing process formulation, T = 0 + 1 M, mean values
[7] = simple mixing process formulation, T = 0 + 1.5 M, mean values
[8] = simple mixing process formulation, T = 0 + 2 M, mean values
[9] = simple mixing process formulation, T = 0 + 3 M, mean values
[10] = Sample A (coarse lactose batch A)
[11] = Sample A (coarse lactose batch A, tapped density 0.72)
[12] = Sample B (coarse lactose batch B)
[13] = Sample B (coarse lactose batch B, tapped density 0.69)

| FPM drop (%) [1, 3] | FPM drop (%) [1, 4] | FPM drop (%) [1, 5] | FPM drop (%) [1, 6] | FPM drop (%) [1, 7] | FPM drop (%) [1, 8] | FPM drop (%) [1, 9] | DD [2, 10] | FPF [2, 10] | MDD [2, 10] | FPM [2, 11] | DD [2, 12] | FPF [2, 12] | MDD [2, 12] | FPM [2, 13] | Compound |
| --- | --- | --- | --- | --- | --- | --- | --- | --- | --- | --- | --- | --- | --- | --- | --- |
| −10.4% | −20.3% | −19.6% | −22.1% | −30.5% | −26.3% | −30.2% | 90.4 | 45% | 92.4 | 41.6 | 88.6 | 33.4% | 88.5 | 29.5 | CCC(=O)OCC(=O)[C@@]1(OC(=O)CC)[C@@H](C)C[C@H]2[C@@H]3CCC4=CC(=O)C=C[C@]4(C)[C@@]3(Cl)[C@@H](O)C[C@@]21C [BDP, (8S,9R,10S,11S,13S,14S,16S,17R)-9-chloro-11-hydroxy-10,13,16-trimethyl-3-oxo-17-[2-(propionyloxy)acetyl]-6,7,8,9,10,11,12,13,14,15,16,17-dodecahydro-3H-cyclopenta[a]phenanthren-17-yl propionate] |
| −7.8% | −19.1% | −20.7% | −24.5% | −36.5% | −29.5% | −33.1% | 11.4 | 41.3% | 11.7 | 4.8 | 11.0 | 30.9% | 11.1 | 3.4 | C[N+]1(C)CCC(OC(=O)C(O)(c2ccccc2)C2CCCC2)C1 (centres unmarked) [GB, glycopyrronium bromide] |

| Compound | FPM drop (%) [1, 3] | FPM drop (%) [1, 4] | FPM drop (%) [1, 5] | FPM drop (%) [1, 6] | FPM drop (%) [1, 7] | FPM drop (%) [1, 8] | FPM drop (%) [1, 9] | DD [2, 10] | FPF [2, 10] | MDD [2, 10] | FPM [2, 11] | DD [2, 12] | FPF [2, 12] | MDD [2, 12] | FPM [2, 13] |
| --- | --- | --- | --- | --- | --- | --- | --- | --- | --- | --- | --- | --- | --- | --- | --- |
| COc1ccc(CC(C)NCC(O)c2ccc(O)c(NC=O)c2)cc1 (centres unmarked) [FF, formoterol fumarate dihydrate] | – | – | – | – | – | – | – | 5.6 | 48.4% | 5.6 | 2.7 | 5.4 | 36.8% | 5.4 | 2.0 |
